Data on two compounds can be found in patent US9648880B2, “Antifungal agents and uses thereof” (University of Massachusetts, priority 2012, dated 2017).

SMILES strings stand for the structures. Entries after “also recorded” stand apart in the source; their conditions may differ. Bounds are passed on as bounds.

Experiment [1] relates to C. albicans adherence to human lung epithelial A549 cells. The experiment can be described thus: epithelial cell binding assay. The format is cell-based, Candida albicans. As to conditions: 25 μM; 37° C., 90 min. The source says: In addition to experiments with inert surfaces, we also tested how the candidate compounds would affect C. albicans adherence to human cells, measuring binding of Green Fluorescent Protein (GFP)-encoding C. albicans cells to monolayers of human lung epithelial A549 cells, which are an effective substrate for Candida adhesion (Kitamura, Antimicrob Agents Chemother. 53: 3963-3971, 2009). […] We conclude that compound #4 is not toxic to this human cell line under our assay concentrations, but can impair fungal adhesion both to inert surfaces and to cultured human epithelial cells.
Human lung epithelial A549 cells (Giard, 1973) were grown to confluence on Nunc 48 well plates in RPMI+10% FBS and Penicillin/Streptomycin. Media was decanted and plates were carefully washed 3 times with PBS to remove unbound cells. Pre-grown overnight cultures of SC5314-GFP and edt1^−/−-GFP C. albicans cells were resuspended in fresh SC+0.2% glucose at 0.5 OD/ml and 250 μl of yeast suspension were plated onto to each well. Following incubation at 37° C. for 1.5 hours, media was decanted, and the monolayers were washed carefully 3 times with 250 μl PBS. Fluorescence from bound yeast was measured (485 Ex/535 Em) using the Synergy HT plate reader (BioTek) after addition of 100 μl PBS/well.

The subject of experiment [2] is C. albicans hyphae formation. The experiment in a line: filamentation assay (hyphal morphogenesis). It counts as cell-based, Candida albicans. As to conditions: for inhibition of hyphal formation and induction of RFP: 12.5 μM, Spider media 16 hours, HWP1-RFP reporter. From the text: Because the ability to interconvert between yeast and hyphal morphologies is usually correlated with pathogenicity (Finkel, 2010), we explored this observation in more detail. First, we assessed the effect of our compounds on the induction of hyphae by “Spider” media (Chauhan, 2009). For this experiment, we used a strain that contains the hyphal-specific HWP1 promoter to the Red Fluorescent Protein (RFP) open reading frame (Ganguly, 2011), which provides a molecular reporter for hyphae formation that we used in addition to visual examination of cell morphology. We initially tested each of the compounds that inhibit adhesion to polystyrene (FIG. 1B), as well as compounds #9, Q1 and Q2 (FIG. 3A), at concentration of 12.5 μM. […] Compounds Q1 and Q2 share a “Scaffold 1” backbone with compounds #4 and #9, but contain a quinoline group (FIG. 3A). Therefore, the compounds with a quinoline group can inhibit hyphae formation, but not adhesion to polystyrene or human cells (FIG. 3). […] Additionally, multiple chemical backbones are able to inhibit hyphae formation, because compound #12 has a “Scaffold 2” backbone (Table 2). To better discriminate the inhibitory compounds, we tested #4, 12 and Q1 at lower concentrations. […] Furthermore, as in the polystyrene adhesion assay (FIG. 8), compound #4 is effective at inhibiting hyphae formation at concentrations >2.5 μM.
Overnight cultures of SC5314 or SGH584 were pregrown in uridine-supplemented SC media at 30° C. to an OD600>13 and diluted 1:10 into prewarmed Spider medium (1% Peptone (Difco), 1% Mannitol (Sigma) and 0.2% K2HPO4 (Sigma) (Chauhan, 2009) in glass tubes and grown for 16 hrs at 37° C. shaking at 200 rpm in the presence or absence of drugs as indicated. DIC and fluorescence images were acquired using a Zeiss Axiovert 200 inverted microscope equipped with a Qicam 12-bit Fast 1394 digital CCD camera (Qimaging). Image acquisition was carried out using Openlab 5 software (Improvison).
Because the ability to interconvert between yeast and hyphal morphologies is usually correlated with pathogenicity, we explored this in more detail, examining induction of hyphae upon carbon starvation (using Spider media). We used a strain that contains the Red Fluorescent Protein (RFP) open reading frame driven by the hyphal-specific HWP1 promoter (Ganguly et al., Eukaryotic Cell 10:1448, 2011), which provides a molecular reporter for hyphae formation in addition to cell morphology. […] Therefore, the shared backbone of these compounds correlates with inhibition of multiple activities.
Hyphal morphogenesis is induced by multiple stimuli that act via multiple signal transduction pathways and is mediated by a complex transcriptional network. […] We detected morphological difference between control and compound #4-treated cultures as early as 60 minutes in 10% serum, and 90 minutes in Spider media.

The subject of another experiment is Aspergillus fumigatus. The experiment in a line: Aspergillus hyphal formation. The format is cell-based. Particulars: 50 μM and 100 μM; RPMI overnight. The protocol: FIGS. 26A-26D. Compound #4 inhibits hyphal formation of Aspergillus fumigatus. FIGS. 26A-26B are photographs showing hyphal development occurs normally in RPMI tissue culture media in the absence of treatment (FIG. 26A) and in the presence of 1% DMSO (control; FIG. 26B). Aspergillus hyphal development was inhibited in the presence of 50 μM and 100 μM compound #4 (FIGS. 26C and 26D, respectively).
Compound #4 was also tested for its inhibitory effect on the growth of Aspergillus fumigatus. Fresh Aspergillus fumigatus conidia (spores) were grown in RPMI tissue culture media overnight in the presence of 1% DMSO (control), 50 μM compound #4, 100 μM compound #4, or no treatment (control) using methods similar to those described in Ramirez-Ortiz et al. (Cell Host & Microbe 9:415-424, 2011). […] This is the first step in germination of the spores, and is required for pathogenesis.

Another experiment relates to Cryptococcus gatti. The experiment in a line: Cryptococcus proliferation. It counts as cell-based. As to conditions: 50 μM and 100 μM; 37° C., 18 hours. As for the experimental part: FIGS. 27A and 27B. Compound #4 inhibits proliferation of Cryptococcus gatti.
Compound #4 was also tested for its inhibitory effect on the growth of Cryptococcus gatti. Cryptococcus cells were incubated at 37° C. in unsupplemented RPMI tissue culture media (+Glutamine−Phenol Red (Gibco #11835, Life Technologies, Grand Island, N.Y.; “RPMI”) or RPMI tissue culture media supplemented with 100 U/ml Penicillin/100 ug/ml Streptomycin (Gibco 100× Pen/Strep #151500-122), 1 mM NaPyruvate, and 10 mM HEPES pH 7.0 (“Af medium”) in the presence of 1% DMSO (control), 50 μM compound #4, or 100 μM compound #4, and cell numbers were counted after 18 hours. The assay was also performed with an untreated control.

As for `Cc1ccc(C(=O)N2CCN(c3ccc([N+](=O)[O-])cc3)CC2)cc1Cl` [Compound 4], in experiment [1], the “inhibition of C. albicans adhesion to human A549 cells” value was “by far the strongest inhibitor of adhesion to human epithelial cells; also recorded: strongly inhibited”. Besides, the “hyphae formation induced by Spider media” value in experiment [2] (10 μM) was “completely blocked the hyphae formation”. Also, the “inhibition of hyphal formation and induction of RFP” value in experiment [2] was “most potently inhibited hyphal formation and induction of RFP”. Moreover, in experiment [2] (10% serum), the “earliest morphological difference between control and treated cultures” value was determined as 60 minutes. Also, the “hyphal response to Spider media and mammalian serum” value in experiment [2] (37° C.) is on record as “inhibited the response to both these stimuli”. In experiment [2] (Spider media), the “concentrations effective at inhibiting hyphae formation” value was over 2.5 µM; the “earliest morphological difference between control and treated cultures” value stood at 90 minutes. Also, in experiment [2] (Spider media, HWP1-RFP reporter (Example 14)), the formation of hyphae result is listed as “blocked formation of hyphae”. The “time at which effect could be detected after Spider media addition” value in experiment [2] (protein reporter assay) is given as “within two hours”. Moreover, the hyphal formation entry in the experiment with Aspergillus fumigatus is “blocks hyphal formation at both concentrations tested”. Besides, the “proliferation (cell numbers)” value with Cryptococcus gatti is on record as “inhibited proliferation of Cryptococcus gatti at both concentrations tested”.
For `O=C(c1ccc(Cl)c(Cl)c1)N1CCN(c2ccc([N+](=O)[O-])cc2)CC1` [Compound 9], in experiment [1], the “inhibition of C. albicans adhesion to human A549 cells” value is given as “not #9 effectively inhibited human cell binding”. For the same compound, in experiment [2], the “inhibition of hyphal formation and induction of RFP” value is “most potently inhibited hyphal formation and induction of RFP”.
